Experimental data published in US20250067726A1, “METHOD FOR ANALYZING PERSONALIZED ANTI-CANCER DRUGS IN CELL CULTURES” (PreComb Therapeutics AG, priority 2022, published 2025).
Where two headings read alike, the source gives them in different places.

What was measured:
[1] = cited from earlier work; for Cmax Human: Table 2, human
[2] = Pharmacokinetic parameters (t1/2, Cmax, tmax) identified for the drug panel; details: human, in vivo; Table 1, twice the half-life, main determinant for in vitro incubation time
Source text: The elimination half-life or drug half-life tin generally refers to the time required for half the dose of drug administered to be removed from the body. For those drugs to be tested, where a suitable tin can not be taken from the literature, and/or for the purpose of grouping or forming panels of drugs, tin values may be determined as follows.
In accordance with the existing guidelines, the rate (Cmax, tmax) and extent (AUC) of absorption of drug from a test formulation (vs. reference formulation) is evaluated using a single dose study in healthy volunteer subjects, followed by measuring the blood/plasma concentration of the parent drug and any major active metabolites (if present) for a time period of ≥3 t½.
For a determination of the parameters, blood samples are taken at 0, 1, 2, 3, 4, 5, 6, 7, and 8 hours, optionally followed by 10 and 12, 18, 24, 30, 36, and 42 hours after administration. As a general rule, the more frequently samples around the expected time of the maximum concentration are taken, the more accurate the value of t½ (and tmax and Cmax) are. The above determinations can be made in several individuals, and median values can be determined as parameter e.g. for grouping (see below), and testing.
Grouping or pre-selection of drugs can be achieved based on one or more of the following parameters that are known to the person of skill: • i) Cmax—the value defining the maximal concentration used, • ii) t½, —time until 1/2 of the drug is cleared by the patient/cells (half-life), • iii) Duration of action [h] (length of time that particular drug is effective), • iv) Elimination time [h] (time it takes for the concentration of the drug in the plasma or the total amount in the body to be removed), • v) Area under the curve (AUC) [ng*h/ml], • vi) Clearance (CL) [L/h]

[3] = test system: Panc-1 cancer cells and NIH3T3 fibroblasts microtumor; test: Redosing example: pancreatic cancer microtumor model, drug response; type: cell-based; details: dosed once for 7 h or re-dosed for another 7 h with 48 h recovery in between; four independent experiments
Description: (§1) A pancreatic cancer microtumor model consisting of Panc-1 cancer cells and NIH3T3 fibroblasts were treated with either Gemcitabine or 5-Flurouracil. Both drugs were dosed either once for 7 hours or re-dosed for another 7 h with a 48 h recovery time in between (four independent experiments).
as §1, with “(GEM) and/or 5-Flurouracil (5-FU).” for “or 5-Flurouracil.”

twice the half-life (2 × t1/2) [2] [h]	SMILES	t1/2 ([1]; Table 1, elimination half-life) [h]	Cmax Human [1] [ng/mL]	t1/2 ([1]; Table 2) [h]	tmax ([1]; Table 2) [h]	Efficiency on redosing versus single dosing [3]
82	CC(=O)O[C@@]12CO[C@@H]1C[C@H](O)[C@@]1(C)C(=O)[C@H](O)C3=C(C)[C@@H](OC(=O)[C@H](O)[C@@H](NC(=O)OC(C)(C)C)c4ccccc4)C[C@@](O)([C@@H](OC(=O)c4ccccc4)[C@H]21)C3(C)C [Docetaxel]	41	1500 to 2500	41		
48.8	C#Cc1cccc(Nc2ncnc3cc(OCCOC)c(OCCOC)cc23)c1 [Erlotinib]		2300		5.5	
0.6	O=c1[nH]cc(F)c(=O)[nH]1 [Fluorouracil]	0.3				did not improve
0.46	Nc1ccn([C@@H]2O[C@H](CO)[C@@H](O)C2(F)F)c(=O)n1 [Gemcitabine]	0.23	18500	0.23		increased efficiency
23.8	O=C(c1cc(Cc2n[nH]c(=O)c3ccccc23)ccc1F)N1CCN(C(=O)C2CC2)CC1 [Olaparib]	11.9	5800	11.9	1.3	
	O=C1[O][Pt]2([NH][C@@H]3CCCC[C@H]3[NH]2)[O]C1=O [Oxaliplatin]		1200	1.86		
8.8	Nc1nc2[nH]cc(CCc3ccc(C(=O)N[C@@H](CCC(=O)O)C(=O)O)cc3)c2c(=O)[nH]1 [Pemetrexed]	4.4	90000 to 150000	4.4		
9.6	CC(=O)Nc1cccc(-n2c(=O)n(C3CC3)c(=O)c3c(Nc4ccc(I)cc4F)n(C)c(=O)c(C)c32)c1 [Trametinib]	4.8	22	4.35		
